Source: ChEMBL document CHEMBL3508693 (2016)

Key:
[1] = Oral clearance of SPP100 following single oral dose of SPP100 600 mg capsule studied in healthy human; assay type: ADME, organism-based; conditions: plasma
[2] = % SPP100 in faeces following single oral dose of 300 mg [14C]SPP100 studied in healthy men; assay type: ADME, organism-based, Feces; conditions: human, in vivo, at 300 mg
[3] = % SPP100 in urine and faeces following single oral dose of 300 mg [14C]SPP100 studied in healthy men; assay type: ADME, organism-based, Urine/Feces; conditions: human, in vivo, at 300 mg
[4] = biological target: CYP2C9 (Homo sapiens, UniProt P11712); test: Inhibitory activity of 20 uM SPP100 on 258 Pmoles of cDNA-derived CYP2C9 enzyme in microsome prepared from human lymphoblastoid cell line; assay type: ADME, microsomes; set-up: conc 20 uM, interact cpd conc 6 uM; conditions: probe diclofenac
[5] = biological target: T1, CYP2C19 (Homo sapiens, UniProt P33261); test: Inhibitory activity of 200 uM SPP100 on 1156 Pmoles of cDNA-derived CYP2C19 enzyme in microsome prepared from human lymphoblastoid cell line; assay type: ADME, microsomes; set-up: conc 200 uM, interact cpd conc 50 uM; conditions: probe (S)-mephenytoin (50 uM)
[6] = biological target: T1, CYP2C19; test: Inhibitory activity of 200 uM SPP100 on 1077 Pmoles of cDNA-derived CYP2C19 enzyme in microsome prepared from human lymphoblastoid cell line; assay type: ADME, microsomes; set-up: conc 200 uM, interact cpd conc 50 uM; conditions: probe (S)-mephenytoin (50 uM)
[7] = % of radioactivity recovered as aliskiren in faeces following oral administration of [14C] aliskiren hemifumarate at 100 mg.Kg-1 level in rat; assay type: ADME, organism-based, Albino HAN:WIST, Feces; conditions: in vivo
[8] = Tmax of [14C] aliskiren hemifumarate following single oral dose of [14C] aliskiren hemifumarate at 500 mg.Kg-1 level in mouse; assay type: ADME, organism-based, TgRasH2, Plasma; conditions: in vivo
[9] = Tmax of [14C] aliskiren hemifumarate following single intravenous dose of [14C] aliskiren hemifumarate at 10 mg.Kg-1 level in mouse; assay type: ADME, organism-based, TgRasH2, Plasma; conditions: in vivo
[10] = Excretion of radioactivity (0-24h) in urine following single intravenous dose of 10 mg.Kg-1 [14C] aliskiren hemifumarate in rat; assay type: ADME, organism-based, Albino HAN:WIST; conditions: in vivo
[11] = biological target: T2, Cytochrome P450 4A11 (Homo sapiens, UniProt Q02928); test: Metabolic clearance (ul.min.nmol-1 CYP) of aliskiren hemifumarate for CYP4A11 was determined in human liver microsome incubated with [14C]SPP100 hemifumarate; assay type: ADME; conditions: microsomes
T2 sequence (Q02928 whole entry): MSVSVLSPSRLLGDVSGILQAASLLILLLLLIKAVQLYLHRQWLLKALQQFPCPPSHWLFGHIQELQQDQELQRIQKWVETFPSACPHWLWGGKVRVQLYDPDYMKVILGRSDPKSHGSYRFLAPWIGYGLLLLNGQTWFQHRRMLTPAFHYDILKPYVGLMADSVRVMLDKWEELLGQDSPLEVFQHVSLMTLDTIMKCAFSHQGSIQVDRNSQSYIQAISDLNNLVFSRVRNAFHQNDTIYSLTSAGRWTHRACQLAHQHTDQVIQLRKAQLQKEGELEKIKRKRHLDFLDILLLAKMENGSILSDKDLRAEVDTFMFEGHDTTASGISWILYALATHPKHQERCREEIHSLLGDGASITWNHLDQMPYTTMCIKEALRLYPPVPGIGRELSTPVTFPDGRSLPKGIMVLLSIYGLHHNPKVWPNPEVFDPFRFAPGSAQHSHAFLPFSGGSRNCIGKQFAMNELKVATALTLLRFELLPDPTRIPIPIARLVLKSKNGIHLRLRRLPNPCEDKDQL

[12] = Concentration of radioactivity in the liver following repeated oral administration of [14C] aliskiren hemifumarate at 100 mg.Kg-1 level studied at 24h after 3rd dose in rat; assay type: ADME, organism-based, Albino HAN:WIST; conditions: in vivo
[13] = Concentration of radioactivity in the liver following repeated oral administration of [14C] aliskiren hemifumarate at 100 mg.Kg-1 level studied at 24h after 10th dose in rat; assay type: ADME, organism-based, Albino HAN:WIST; conditions: in vivo
[14] = Concentration of radioactivity in the kidney medulla following repeated oral administration of [14C] aliskiren hemifumarate at 100 mg.Kg-1 level studied at 2h after 7th dose in rat; assay type: ADME, organism-based, Albino HAN:WIST, Renal medulla; conditions: in vivo
[15] = Cmax normalised (0-168h) of total radioactivity following single oral administration of [14C] aliskiren hemifumarate at 3 mg.Kg-1 level in marmoset; assay type: ADME, organism-based, Callithrix jacchus, Plasma; conditions: in vivo
[16] = Tmax of aliskiren hemifumarate following 8 day once-daily dosing of SPP100B oral solution at 160 mg level studied on day 8 in men; assay type: ADME, organism-based; conditions: male, human, plasma
[17] = biological target: hERG (KCNH2) (Homo sapiens, UniProt Q12809); test: Effects of 10 uM aliskiren hemifumarate on current through cloned hERG channel expressed in human embryonic kidney cell; assay type: cell-based; set-up: conc 10 uM, dose level Low; conditions: HEK293 cells that express cloned hERG channel, read-out: Inhibitory activity
[18] = AUC of unlabeled aliskiren hemifumarate following single oral dose of aliskiren hemifumarate at 500 mg.Kg-1 level in mouse; assay type: ADME, organism-based; conditions: TgRasH2, mouse, plasma
[19] = Effect of 2 week oral dosing of aliskiren hemifumarate at 100 mg.Kg-1 level on hematological parameter values in female Callithrix jacchus; assay type: toxicity, organism-based, Plasma; conditions: marmoset, in vivo, 336 h
[20] = Effect of 2 week oral dosing of aliskiren hemifumarate at 100 mg.Kg-1 level on plasma magnesium level in female Callithrix jacchus; assay type: toxicity, organism-based; conditions: marmoset, 336 h
[21] = Cmax of aliskiren hemifumarate following 2 week oral dosing of aliskiren hemifumarate at 100 mg.Kg-1 level studied on day 1 in female Callithrix jacchus; assay type: ADME, organism-based; conditions: marmoset, plasma
[22] = Cmaxspec of aliskiren hemifumarate following 2 week oral dosing of aliskiren hemifumarate at 100 mg.Kg-1 level studied on day 1 in male Callithrix jacchus; assay type: ADME, organism-based, Plasma; conditions: marmoset, in vivo, 336 h
[23] = Tmax of aliskiren hemifumarate following 4 week oral dietary dosing of aliskiren hemifumarate at 500 mg.Kg-1 level in female mouse; assay type: ADME, organism-based; conditions: CB6F1-TGrasH2, mouse, in vivo
[24] = Tmax of aliskiren hemifumarate following 4 week oral dietary dosing of aliskiren hemifumarate at 2000 mg.Kg-1 level in female mouse; assay type: ADME, organism-based; conditions: CB6F1-TGrasH2, mouse, in vivo
[25] = AUC (0-24h) of aliskiren hemifumarate following 4 week oral dietary dosing of aliskiren hemifumarate at 1500 mg.Kg-1 level in female mouse; assay type: ADME, organism-based; conditions: CB6F1-TGrasH2, mouse, plasma
[26] = AUC (0-24h)/dose of aliskiren hemifumarate following 4 week oral dietary dosing of aliskiren hemifumarate at 1000 mg.Kg-1 level in female mouse; assay type: ADME, organism-based, CB6F1-TGrasH2, Plasma; conditions: in vivo
[27] = t1/2 of aliskiren hemifumarate following 2 week oral dosing of aliskiren hemifumarate at 50 mg.Kg-1 level studied on day 1 in male Callithrix jacchus; assay type: ADME, organism-based; conditions: marmoset, plasma
[28] = AUC(0-24h) of aliskiren hemifumarate following 2 week oral dosing of aliskiren hemifumarate at 10 mg.Kg-1 level studied on day 1 in female Callithrix jacchus; assay type: ADME, organism-based; conditions: marmoset, plasma
[29] = Cmax of aliskiren hemifumarate following repeated oral administration of [14C] aliskiren hemifumarate at 100 mg.Kg-1 level studied after 2h of dosing on day 1 in rat; assay type: ADME, organism-based, Albino HAN:WIST; conditions: in vivo, read-out: Cmax(1)
[30] = Cmax of aliskiren hemifumarate following repeated oral administration of [14C] aliskiren hemifumarate at 100 mg.Kg-1 level studied after 2h of dosing on day 10 in rat; assay type: ADME, organism-based, Albino HAN:WIST; conditions: in vivo, read-out: Cmax(10)
[31] = Elimination half-life of aliskiren hemifumarate following repeated oral administration of [14C] aliskiren hemifumarate at 100 mg.Kg-1 level studied in rat; assay type: ADME, organism-based, Albino HAN:WIST; conditions: in vivo
[32] = Cmax normalised (0-168h) of unlabeled aliskiren hemifumarate following single oral administration of aliskiren hemifumarate at 3 mg.Kg-1 level in marmoset; assay type: ADME, organism-based, Callithrix jacchus, Plasma; conditions: in vivo

T1 sequence (P33261 whole entry): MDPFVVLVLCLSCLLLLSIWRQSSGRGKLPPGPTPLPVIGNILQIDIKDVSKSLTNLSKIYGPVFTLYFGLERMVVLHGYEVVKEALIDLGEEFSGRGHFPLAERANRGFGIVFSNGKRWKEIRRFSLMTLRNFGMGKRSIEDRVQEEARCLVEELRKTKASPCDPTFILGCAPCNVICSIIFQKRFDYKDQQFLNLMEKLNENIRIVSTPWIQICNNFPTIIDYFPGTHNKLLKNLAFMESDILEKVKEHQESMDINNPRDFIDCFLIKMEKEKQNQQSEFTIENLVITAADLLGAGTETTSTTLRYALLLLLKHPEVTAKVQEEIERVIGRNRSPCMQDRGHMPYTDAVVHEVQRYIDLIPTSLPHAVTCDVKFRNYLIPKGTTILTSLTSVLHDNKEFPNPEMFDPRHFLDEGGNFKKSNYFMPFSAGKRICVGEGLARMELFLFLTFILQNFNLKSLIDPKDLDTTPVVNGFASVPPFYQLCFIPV
CYP2C9, sequence (P11712 whole entry): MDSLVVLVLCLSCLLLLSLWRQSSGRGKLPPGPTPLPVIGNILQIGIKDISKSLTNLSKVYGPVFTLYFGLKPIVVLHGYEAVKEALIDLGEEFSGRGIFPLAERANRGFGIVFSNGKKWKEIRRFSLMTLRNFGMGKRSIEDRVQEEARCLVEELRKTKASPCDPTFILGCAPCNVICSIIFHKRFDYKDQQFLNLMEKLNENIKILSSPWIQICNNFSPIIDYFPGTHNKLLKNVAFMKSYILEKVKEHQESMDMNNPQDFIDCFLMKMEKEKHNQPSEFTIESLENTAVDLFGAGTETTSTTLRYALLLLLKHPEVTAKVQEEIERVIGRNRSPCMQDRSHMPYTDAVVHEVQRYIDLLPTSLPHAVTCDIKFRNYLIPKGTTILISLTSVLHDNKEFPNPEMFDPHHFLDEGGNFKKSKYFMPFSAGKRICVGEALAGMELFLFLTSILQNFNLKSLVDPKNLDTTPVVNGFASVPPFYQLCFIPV
hERG (KCNH2), sequence (Q12809 whole entry): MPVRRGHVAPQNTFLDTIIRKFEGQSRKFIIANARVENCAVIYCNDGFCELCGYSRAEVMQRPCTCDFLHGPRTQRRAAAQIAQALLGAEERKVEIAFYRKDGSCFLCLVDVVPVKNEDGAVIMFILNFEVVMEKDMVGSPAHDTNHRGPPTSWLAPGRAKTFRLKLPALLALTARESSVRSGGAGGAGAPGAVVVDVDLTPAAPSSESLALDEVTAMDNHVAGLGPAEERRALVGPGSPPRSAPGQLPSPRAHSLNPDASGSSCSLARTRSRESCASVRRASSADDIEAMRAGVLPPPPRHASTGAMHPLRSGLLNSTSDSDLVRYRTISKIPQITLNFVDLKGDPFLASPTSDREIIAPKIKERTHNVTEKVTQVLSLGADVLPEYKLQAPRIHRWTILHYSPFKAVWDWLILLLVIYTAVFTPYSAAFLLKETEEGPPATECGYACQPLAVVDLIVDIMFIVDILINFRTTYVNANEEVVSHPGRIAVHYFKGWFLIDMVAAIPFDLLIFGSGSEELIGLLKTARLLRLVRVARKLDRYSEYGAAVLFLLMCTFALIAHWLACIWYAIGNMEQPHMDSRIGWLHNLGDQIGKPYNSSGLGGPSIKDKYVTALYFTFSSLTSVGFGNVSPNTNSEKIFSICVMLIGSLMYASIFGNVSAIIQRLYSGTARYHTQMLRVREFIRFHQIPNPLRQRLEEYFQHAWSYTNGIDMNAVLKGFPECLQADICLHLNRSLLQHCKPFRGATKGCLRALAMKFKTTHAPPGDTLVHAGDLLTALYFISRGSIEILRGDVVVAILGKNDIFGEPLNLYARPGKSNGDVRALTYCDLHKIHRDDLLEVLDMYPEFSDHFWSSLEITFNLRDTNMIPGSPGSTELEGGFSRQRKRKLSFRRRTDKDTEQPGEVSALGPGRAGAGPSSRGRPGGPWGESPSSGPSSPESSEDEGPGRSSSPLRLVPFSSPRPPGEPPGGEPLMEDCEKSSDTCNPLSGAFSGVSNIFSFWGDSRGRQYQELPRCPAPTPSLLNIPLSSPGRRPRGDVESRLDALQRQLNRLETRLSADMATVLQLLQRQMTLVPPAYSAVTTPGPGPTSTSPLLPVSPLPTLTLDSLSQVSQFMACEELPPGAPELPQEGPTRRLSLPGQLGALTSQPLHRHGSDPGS

Structure (SMILES): COCCCOc1cc(C[C@@H](C[C@H](N)[C@@H](O)C[C@H](C(=O)NCC(C)(C)C(N)=O)C(C)C)C(C)C)ccc1OC
- CL/F [1]: 3700 mL/min
- Compound recovery [2]: 77.5%
- Compound recovery [3]: 79.8%
- inhibition at 20 µM [4]: 1.3%
- inhibition at 200 µM [5]: 3%
- inhibition at 200 µM [6]: 9.6%
- Compound recovery [7]: > 40%

Structure (SMILES): COCCCOc1cc(C[C@@H](C[C@H](N)[C@@H](O)C[C@H](C(=O)NCC([14CH3])([14CH3])C(N)=O)C(C)C)C(C)C)ccc1OC.O=C(O)/C=C/C(=O)O
- Tmax [8]: 1 h
- Tmax [9]: 4.98 min
- Radiolabel recovery [10]: 35.6%
- CL [11]: 4.9 µL·min/nmol
- Radiolabel recovery [12]: OUTCOME = Detected
- Radiolabel recovery [13]: OUTCOME = Detected
- Radiolabel recovery [14]: OUTCOME = Detected
- Cmax normalised [15]: 0.12 (umol/L)/(mg/kg)

Structure (SMILES): COCCCOc1cc(C[C@@H](C[C@H](N)[C@@H](O)C[C@H](C(=O)NCC(C)(C)C(N)=O)C(C)C)C(C)C)ccc1OC.COCCCOc1cc(C[C@@H](C[C@H](N)[C@@H](O)C[C@H](C(=O)NCC(C)(C)C(N)=O)C(C)C)C(C)C)ccc1OC.O=C(O)/C=C/C(=O)O [ALISKIREN FUMARATE]
- Tmax [16]: 4.1 h
- inhibition at 10 µM [17]: 1.4%
- AUC [18]: 7.04 µM·h
- Change in hematology [19]: OUTCOME = Hematological parameter values did not differ from control values. No animals died during the study.
- Plasma magnesium_CHANGE_BY [20]: 130%
- Cmax [21]: 7940 ng/mL
- Cmax normalised [22]: 0.072 (ug/ml)/(mg/kg)
- Tmax [23]: 0 h
- Tmax [24]: 30 min
- AUC(0-t) at 24 h [25]: 5470 ng·h/mL
- AUC normalised [26]: 2.28 ((ng/mL).hours)/(mg/kg/day)
- half-life [27]: 442 min
- AUC(0-t) at 24 h [28]: 21300 ng·h/mL
- Cmax [29]: 639 nM
- Cmax [30]: 357 nM
- t1/2 [31]: 39.5 h
- Cmax normalised [32]: 0.132 (umol/L)/(mg/kg)
